The METLIN SMRT retention time set (Domingo-Almenara et al. 2019)

Assay: gradient 5% acetonitrile 3 min, to 50% in 2 min, to 85% in 15 min, held 3 min, 100 µL/min
Details: column: Zorbax Extend-C18 2.1 x 50 mm; eluents: water / acetonitrile, 0.1% formic acid
Summary of the method: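 Retention times come from adduct peaks that were picked computationally and then checked by hand. The standards, pure and pooled in mixtures of ~100 molecules, were run on a Zorbax Extend-C18 column (2.1 × 50 mm, 1.8 μm) at 100 μL/min with water and acetonitrile, each with 0.1% formic acid. Detection was by quadrupole time-of-flight mass spectrometry in positive and negative ionization mode, with a dead volume of 40 μL and a dwell volume of 900 μL.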

SMILES	RP-LC retention time
CC(C(=O)N1CCN(C(=O)c2ccco2)CC1)n1c(=O)c(C(F)(F)F)nc2ccccc21 (stereo not given)	834 s
Cc1[nH]c(C(=O)N2CCC(CC(=O)NC(C)C)CC2)c(C)c1C(=O)OC(C)C	713 s
COc1ccc(-c2nnc(-c3ccc(OC)c(S(=O)(=O)N4CCCCC4)c3)o2)cc1OC	922 s
Cc1cn(C)c(CC(=O)N2CCCCCC2)c1C(=O)O	664 s
c1ccc2c(OCc3nc4c5ccccc5ncn4n3)cccc2c1	1040 s
Cc1cccc(NC(=O)c2nc(N3CCSCC3)c3cnn(C)c3n2)c1	901 s
CC(=O)Nc1cc2c(cc1Sc1ccc(C)cc1)n(C)c(=O)n2C	785 s
CC(C)c1cccc(NC(=O)c2nc(N3CCSCC3)c3cnn(C)c3n2)c1	1040 s
CC(C(=O)N1CC(n2cc(COCC3CC3)nn2)C1)c1ccccc1 (stereo not given)	701 s
COc1ccc(NC(=O)c2cnc(N3CCN(c4ccc(F)cc4)CC3)nc2N)cc1	776 s
Cc1noc(-c2cccc(OC3CN(C(=O)Nc4ccccc4)C3)c2)n1	844 s
O=C(Nc1ccc(F)cc1)c1ccc(Br)s1	935 s
CCOc1ccc(-c2noc(CN3N=NC4C(=O)N(c5ccc(C(C)C)cc5)C(=O)C43)n2)cc1OC (stereo not given)	1060 s
O=c1c2sccc2n(Cc2nc(-c3ccc(F)c(Cl)c3)no2)c(=O)n1CCc1ccccc1	1230 s
CCCN(C(=O)Nc1cc(C)cc(C)c1)c1nc(-c2ccc(C3CCCCC3)cc2)cs1	856 s
NC(=O)C1(N2CCCCC2)CCN(C(=O)c2cc3ccc4cccnc4c3[nH]2)CC1	574 s
CC(C)COc1cc(=O)n2c(c1C(=O)NCCCN1CCOCC1)CCCCC2	570 s
CCOc1ccc(-c2c(C)nn3c(C)c(C(=O)NCC4CCCN4CC)cnc23)cc1OCC (stereo not given)	667 s
CCCC(=O)Nc1cc2c(cc1N1CCC(C)CC1)n(C)c(=O)c(=O)n2C	820 s
COc1ccc(C(=O)N2CCc3cc(-c4csc(C)n4)ccc32)cc1	972 s
COCCn1ccc2nc(C)c(C(=O)Nc3ccc4c(c3)OCO4)cc2c1=O	666 s
CC1(C(=O)NCc2ccc(F)cc2)Cn2cnc(C(=O)NCCc3ccccc3)c2C(=O)N1C1CC1 (stereo not given)	772 s
CSc1cccc(NC(=O)C(=O)NCc2cccs2)c1	846 s

SMILES	RP-LC retention time
c1ccc(OCCSc2nc3ccccc3[nH]2)cc1	625 s
COC(=O)Cn1c(C2CC(=O)N(c3ccccc3C)C2)nc2ccccc21 (stereo not given)	704 s
Cc1ccc(C2Cn3nnc(-c4nc(-c5ccc(F)c(F)c5)no4)c3CO2)c(C)c1 (stereo not given)	1230 s
CCc1ccccc1S(=O)(=O)N1CCc2nc[nH]c2C1	612 s
CCN1C(=O)Cc2ccccc2C1C(=O)NCc1cccc(F)c1 (stereo not given)	744 s
CCOC(=O)CNC(=O)N1CCCCCC1c1cccc(C)c1 (stereo not given)	931 s
Cc1ccccc1-c1nc(C2CCN(S(=O)(=O)c3ccc4c(c3)CCCC4)CC2)no1	1380 s
CN(C)[C@@H]1CN(Cc2ccccc2C#N)C[C@H]1CO	518 s
CC(C)(C)NC[C@@H](O)COc1cccc2c1CCCC2=O	689 s
O=C(c1nnc(-c2ccc(S(=O)(=O)N3CCCCC3)cc2)o1)N1CCC2(CC1)OCCO2	884 s
CCOc1ccccc1NC(=O)C1CCN(C(=O)C2Sc3ccccc3NC2=O)CC1 (stereo not given)	814 s
O=C(N[C@H]1C[C@@H]2C[C@H]1N(C(=O)c1ccc3c(c1)OCO3)C2)c1ccccc1	721 s
CC(C)c1noc(-c2cc(=O)n(CC(=O)NCc3cccc(Cl)c3)c3ccccc23)n1	1030 s
CCOC(=O)Cn1c(=O)c2c(nc3n2CCCCN3c2ccc(OCC)cc2)n(C)c1=O	944 s
O=C(NC1CCCC1)N1CCN(c2nc3ccccc3n(Cc3ccccc3)c2=O)CC1	997 s
CCN(CC)C(=O)Cn1nc(-c2nc(-c3ccc(C)cc3)no2)c2ccccc21	1150 s
CC(=O)OC1CCN(C(=O)c2ccc(C#N)cc2)CC1	698 s
O=C(Nc1ccccc1Cl)C(=O)c1c[nH]c2ccccc12	1130 s
O=C(Nc1nc(-c2cccnc2)cs1)c1csc(-n2cccc2)n1	667 s
O=C(NCCc1ccccc1)c1cc2sccc2n1Cc1ccc(Cl)cc1	1210 s
COc1ccc(-c2nc3cc(C)ccn3c2NC(=O)COc2ccc(Cl)cc2)cc1OC	714 s
Cc1cc(C)n(-c2ccc(C(=O)NCc3ccc(F)cc3F)cn2)n1	929 s
